Legend:
Details in all cases: after 15 washes
[1] = Example 2C: azo dye in multicomponent kit (silicone & carbon-hybrid system), color result and wash fastness
Method: (§1) Pretreatment to Apply Cationic Polymer (PEI, Polyethylenimine) on the Hair Fiber Surface: • 1 ml of PEI solution (0.5% aqueous solution of PEI (MW: 75 kDa) is applied on the hair strand. • The hair strand is dried via blow-dryer, followed by further drying at 40° C. in the oven.
100 mg azo dye are mixed with 400 mg isocyanate polymer (Melio 09-S-11); 9.3 g 1-Methoxy-2-propanol are added and the mixture is well shaked.
(§2) Subsequently, 200 mg OH Silicone (Silmer OHT C-50) are added to the reaction mixture. The mixture is stirred at room temperature for 5 min. 1 g of the above prepared formulation is applied on a pre-treated hair tress (as described above) and the polymers are allowed to react to start forming a film immobilizing the added dye. After removing the excess of the formulation, the film forming reaction is completed as the hair tress is dried via a heat blower.

[2] = Example 2B: azo dye in multicomponent kit (isocyanate / OH silicone), color result and wash fastness
Method: as §1
100 mg azo dye are mixed with 300 mg isocyanate polymer (Silmer NCO DI50); 9.4 g 2,2,4,6,6-pentamethylheptane are added and the mixture is well shaked.
Subsequently, 200 mg OH Silicone (Silmer OHT C-50) are added to the reaction mixture. The mixture is stirred at room temperature for 5 min.
as §2, with “1” for “Subsequently, 200 mg OH Silicone (Silmer OHT C-50) are added to the reaction mixture. The mixture is stirred at room temperature for 5 min. 1”

[3] = Example 2A: azo dye in multicomponent kit (Michael addition), color result and wash fastness
Method: as §1
100 mg azo dye is suspended in 1 g THF, and 8.4 g Isododecane (2,2,4,6,6-pentamethylheptane) solution are added as solvent. Subsequently, 200 mg Silmer OH ACR DI-10 polymer (acrylate derivative) and 300 mg Silamine 2972 is added to the reaction mixture. The mixture is stirred at room temperature for 5 min.
as §2, with “1” for “Subsequently, 200 mg OH Silicone (Silmer OHT C-50) are added to the reaction mixture. The mixture is stirred at room temperature for 5 min. 1”

CCN(CCO)c1ccc(/N=N/c2nc(N3CCN(C)CC3)c(C=C3C(=O)c4ccccc4C3=O)s2)cc1 [black azo, 2-[[2-[(E)-[4-[ethyl(2-hydroxyethyl)amino]phenyl]azo]-4-(4-methylpiperazin-1-yl)thiazol-5-yl]methylene]indane-1,3-dione]
color remains to an extent of [1]: 80% | color remains to an extent of [2]: 50% | color remains to an extent of [3]: 30%

CCN(CCO)c1ccc(/N=N/c2nc(Cl)c(C=C3C(=O)c4ccccc4C3=O)s2)cc1 [blue azo, 2-{[4-chloro-2-((E)-{4-[ethyl(2-hydroxyethyl)amino]phenyl}diazenyl)-1,3-thiazol-5-yl]methylidene}-1H-indene-1,3(2H)-dione]
color remains to an extent of [1]: 80% | color remains to an extent of [2]: 90% | color remains to an extent of [3]: 80%
